Reference: PMC12160547, “Identification of a Novel Small Molecule STING Agonist Reshaping the Immunomicroenvironment of Pancreatic Ductal Adenocarcinoma” (International Journal of Biological Sciences, 2025)

Experiments:
[1] = tested on: pancreatic tumor organoids; assay: Pancreatic tumor organoid viability (AO/PI staining, CellTiter-Glo 3D); format: cell-based, human
Excerpt: Pancreatic tumor organoids were derived from patients diagnosed with pancreatic ductal adenocarcinoma at Ruijin Hospital, affiliated with Shanghai Jiao Tong University School of Medicine. Inclusion criteria required a confirmed histopathological diagnosis of pancreatic ductal adenocarcinoma and the absence of prior neoadjuvant treatment. After obtaining informed consent from the patients, tumor tissues were excised during surgery and preserved in a tissue preservation solution (Absin). The tumor samples were promptly minced into small fragments in pre-chilled RPMI-1640 and digested for 20 minutes at 37°C using the Human Tumor Dissociation Kit (Miltenyi Biotec). The resulting single-cell suspension was filtered through a 100-µm mesh (Falcon) and seeded onto Matrigel (Corning). Following a 30-minute incubation at 37°C, OM12 (Omabio) complete organoid medium was added around the periphery of the Matrigel. The tissue-derived cells successfully grew in a three-dimensional format. The viability of the organoids was assessed using CellTiter-Glo® 3D Cell Viability Assay (Promega) reagents. […] Luminescence was subsequently measured using the BioTek Synergy LX multimode reader (Agilent). […] Acridine orange (AO) binds to the nuclei of all cells, emitting green fluorescence, while propidium iodide (PI) penetrates the cell membrane to stain dead cells red. […]

[2] = tested on: subcutaneous pancreatic tumor; assay: Subcutaneous pancreatic tumor model; format: in vivo, C57BL/6 mice
Procedure: C57BL/6 mice were obtained from Phenotek (Shanghai) and randomly assigned to groups, with a minimum of six mice per group. For the subcutaneous tumor model, approximately 5 × 10^5 tumor cells were suspended in 150 μL PBS and injected into the left flank of the mice. Tumor size was measured every four days starting from day 7 post-injection. On days 9, 12, and 15, the mice were administered three different concentrations of the drug via peritumoral injection, while the Control group received only the solvent. The mice were euthanized on day 25, and tumors were excised, weighed, and further analyzed.
(§1) Multiplex cytokine detection was performed using Luminex cytokine bead array technology provided by WayenBio, Shanghai. In the mouse tumor model, levels of multiple cytokines were simultaneously measured and normalized to tumor weight. For the quantification of specific cytokines, such as IL-6 and IFN-β, enzyme-linked immunosorbent assay (ELISA) kits from Abclonal were used. The assays were conducted according to the manufacturer's instructions.

[3] = tested on: orthotopic PDAC microenvironment; assay: Flow cytometry and scRNA-seq of orthotopic PDAC microenvironment; format: in vivo, mice
Procedure: Bulk RNA sequencing was performed by GenePlus (China) on pancreatic cancer organoids treated with 10 μM of […] or MSA-2, compared to a control group, with three biological replicates. The sequencing data are available for access and analysis via the provided website. Single-cell RNA sequencing (scRNA-seq) was conducted by NovelBio (China) on in situ mouse pancreatic tumors following tissue digestion. The resulting sequencing data were analyzed using R software. Mouse tumors were digested using the Mouse Tumor Dissociation Kit (Miltenyi Biotec) according to the manufacturer's protocol. The resulting single-cell suspension was filtered through a 70-micron mesh to ensure a homogeneous cell population. Cells were stained with fluorescently labeled antibodies for flow cytometry at 4°C on ice for 30 minutes. After washing off unbound antibodies, fluorescence was detected using a Beckman CytoFlex S flow cytometer. For co-cultured immune cells, separated T cells and macrophages were similarly stained with flow cytometry antibodies. For cytokine staining, cells were pre-stimulated with the eBioscienceTM Cell Stimulation Cocktail for 4 hours. For intracellular protein staining, after surface staining, cells were fixed and permeabilized using the BD Cytofix/CytopermTM Fixation/Permeabilization Kit, followed by staining for intracellular proteins. Flow cytometry data were analyzed using FlowJo 10 software.

mouse STING (R231) = biological target: T1, mouse STING (R231) (Mus musculus, UniProt Q3TBT3); assay: Differential scanning fluorimetry (DSF); format: binding; details: n = 3
T1 sequence (Q3TBT3 1-378): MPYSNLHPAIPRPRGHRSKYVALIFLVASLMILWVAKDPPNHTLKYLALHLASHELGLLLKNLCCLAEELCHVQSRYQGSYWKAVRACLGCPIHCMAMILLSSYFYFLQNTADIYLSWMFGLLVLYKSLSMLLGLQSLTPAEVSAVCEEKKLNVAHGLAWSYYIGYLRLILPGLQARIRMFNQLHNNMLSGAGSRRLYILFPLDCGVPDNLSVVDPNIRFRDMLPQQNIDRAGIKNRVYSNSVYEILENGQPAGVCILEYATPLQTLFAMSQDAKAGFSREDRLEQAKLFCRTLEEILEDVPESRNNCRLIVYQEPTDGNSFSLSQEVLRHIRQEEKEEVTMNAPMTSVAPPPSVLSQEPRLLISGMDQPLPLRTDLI
Excerpt: (§2) human STING variants (R232) and mouse STING (R231) in differential scanning
(§3) fluorimetry (DSF) assay. The data were shown as the mean value of fluorescence (n =
(§4) (1 picture or pasted object on this page, not shown here)

[4] = tested on: human STING variants (R232); assay: Differential scanning fluorimetry (DSF); format: binding; details: n = 3
Excerpt: as §2, §3, §4

cGAS-STING pathway = assay: cGAS-STING pathway, IFN-β and ISG readout in pancreatic cancer organoids; format: cell-based, human
Procedure: (§5) Tumor tissues or cells were thoroughly lysed in RIPA buffer containing protease and phosphatase inhibitors. The lysates were then centrifuged to collect the supernatant. Proteins were separated by electrophoresis in MOPS buffer and subsequently transferred onto a PVDF membrane. After blocking, the membrane was sequentially incubated with the primary antibody, secondary antibody, and chemiluminescent substrate (ECL) for imaging.
(§6) RNA from tumor tissues or cells was extracted using the SteadyPure Universal RNA Extraction Kit (Accurate Biology) and reverse transcribed into cDNA with the Evo M-MLV Reverse Transcription Kit (Accurate Biology). Relative RNA expression levels were quantified using 2X Universal SYBR Green Fast qPCR Mix (Abclonal), and the results were recorded on the qTOWER®3 84 Real-Time PCR system.
as §1

STING signaling = assay: Relative gene expression in RAW-Lucia cells (RT-qPCR); format: cell-based, mouse
Procedure: as §6

[5] = tested on: STING and downstream signaling molecules; assay: STING pathway western blot in Panc-1 cell line; format: cell-based; details: human pancreatic cell line Panc-1
Procedure: as §5
Western Blot showing cGAS-STING pathway protein expression of Panc-1 cell line
(B) CCK8 of Panc-1 cell line when
(C-D) Representative image (C) and statistic (D) of […]

[6] = Metabolite profiling in liver microsomes, 60 min incubation; format: in vitro ADME, human; details: D166 incubated 60 min; selected ion chromatographic peak areas
[7] = flow cytometry of tumor suspensions

## [2H]C([2H])([2H])Oc1cc2cc(C(=O)CCC(=O)O)sc2cc1OC([2H])([2H])[2H] [D166]
[1]; increased concentration of D166
  viability of pancreatic tumor organoids: decreased viability
[1]; organoids, 10μM
  inhibiting organoid viability compared with ADU-S100, MSA-2, SR-717, MK-1454 and DXMAA: better efficacy
[2]; higher D166 doses, ELISA
  IL-6, IFN-β, and TNF-α levels in the TME: increased
[2]; peritumoral injection, different doses
  tumor growth: significant dose-dependent inhibitory effect
[2]; tumor weight, Figure S4A
  antitumor efficacy compared with other STING agonists: comparable to that of other STING agonists
[3]; 10 mg/kg D166, 10X single-cell sequencing
  proportion of ductal cells (including cancer cells) and fibroblasts: significant reduction
[3]; [7]
  F4/80-positive macrophages among the myeloid cells: significant increase
  proportion of CD4+ and CD8+ T cells: significantly increased
Mouse STING (R231)
  thermal stability of mouse STING (R231): increased
[4]
  thermal stability of human STING variants (R232): increased
cGAS-STING pathway; organoids, 10μM
  activating IFN-stimulated genes (ISGs) compared with ADU-S100, MSA-2, SR-717, MK-1454 and DXMAA: better efficacy
cGAS-STING pathway; pancreatic cancer organoids, different concentration and duration
  activation of the cGAS-STING pathway and induction of IFN-β: time- and dose-dependent effect
STING signaling
  Relative expression (Cxcl10/actin): 158.00 ± 2.91
[5]
  activation of STING and downstream signaling molecules: dose- and time-dependent manner
[6]
  Relative Peak Area Abundance (%) HLM: 98.5%
